Measured values as given in US8420836B2, “NFAT signal inhibitor and hair-growing agent” (Kao Corporation, priority 2008, dated 2013).
“Also recorded” adds a separate entry of the source.

Assays:
NFAT signal = NFAT signal inhibitory effect: pNFAT-Luc luciferase reporter assay with ionomycin stimulation; type: cell-based, human; settings: HEK293 cells transfected with pNFAT-Luc; 1 μM ionomycin; assay after 8 hours; FIG. 4
Method: (1) Materials and Methods for Evaluation System
In this evaluation system, human kidney (HEK293) cells were purchased from ATCC (American Type Culture Collection) and used. HEK293 cells were cultured in DMEM (High glucose, 10% heat-inactivated FBS) under the conditions of 37° C. and 5% CO2.
In this evaluation system, HEK293 cells transfected with a plasmid having firefly luciferase introduced into the downstream of the NFAT-binding sequence, pNFAT-Luc (Stratagene), were used. More specifically, pNFAT-Luc (Stratagene), in which firefly luciferase gene was introduced in the downstream of 4 copies of the NFAT-binding sequence, was transfected into HEK293 cells for an evaluation of the NFAT transcription activity. Furthermore, for the purpose of eliminating fluctuation due to the transfection efficiency, pRL-CMV (Promega) having Renilla luciferase introduced in the downstream of CMV promoter, was simultaneously transfected so as to correct for the signal derived from firefly luciferase.
Transfection was carried out using LipofectAMINE 2000 reagent (Invitrogen) according to the manual. The medium was exchanged eight hours after the transfection, and the system was incubated overnight. Thereafter, the component A, component B and component C obtained in Example 1, and the deacylation product of the component A prepared in Example 3 were added thereto, and further after one hour, 1 μM ionoinycin was added thereto. After 8 hours, a luciferase reporter assay was carried out.
Luciferase Reporter Assay
The luciferase reporter assay was carried out using Dual-Glo Luciferase Assay System (Promega) according to the manual. That is, the medium was removed, and then Dual-Glo luciferase reagent which had been diluted two times with PBS, was added thereto. The system was stirred, and after 20 minutes, the firefly luciferase activity was measured. Thereafter, an equal amount of Dual-Glo Stop&Glo reagent was added to the system, the mixture was stirred, and then the Renilla luciferase activity was measured. The luciferase activity measurement was carried out using MiniLumat LB 9506 (EG&G Berthold), and the amount of luminescence by luciferase was quantitatively detected. For both luciferases, the duration for luciferase activity measurement was set to 2 seconds.
Calculation of NFAT Signal Inhibitory Rate.
All of the NFAT transcription activity values (firefly luciferase activity) were corrected by dividing the values of the Renilla luciferase activity introduced for the transfection efficiency correction. Thereafter, the NFAT signal inhibitory rate was calculated by the following expression.
NFAT signal inhibitory rate (%)=100−(Test sample and ionomycin-added group−non-stimulation group)/(Ionomycin only-added group−non-stimulation group)×100

swine hair follicles = assay: Evaluation of hair shaft elongation by swine hair follicle organ culture; type: cell-based; settings: isolated pig hair follicles cultured 8 days; solvent control (ethanol) taken as 100%; FIG. 6
Method: Evaluation of Hair Shaft Elongation by Swine Hair Follicle Organ Culture
The skin of buttocks of a pig for meat was separated into an appropriate size, and excess fatty tissue was removed. The pigskin was disinfected by immersing in a hibitane solution (5% hibitane solution (Dainippon Sumitomo Pharma Co., Ltd.) diluted to 5 to 20 times with water) for 5 minutes to 10 minutes under sterile conditions, and after that was washed several times with D-PBS. Subsequently, hair follicles were isolated from the washed pigskin under a stereoscopic microscope, and the hair follicles were collected in William's Medium E (Invitrogen) medium. […]
The component A and component B obtained in Example 1 were added to the above-mentioned medium, and the system was cultured for 8 days, together with an ethanol-added group, which was a solvent control. Stereomicroscopic images of the culture were captured on the day of culture initiation (zeroth day) and on the eighth day with a CCD camera (Pixera Model No. PVC 100C), and from those images, the length from the base of the hair bulb to the tip of the hair shaft was measured. Thereafter, the hair shaft elongation ratios of the component A and component B obtained in Example 1 were calculated, with the amount of hair shaft elongation of the solvent control group before and after culture being taken as 100%.

Structure (SMILES)	NFAT signal inhibitory rate (NFAT signal)	hair shaft elongation ratio (hair-growing effect) (swine hair follicles)
C/C=C(/C)C(=O)OC1c2c(ccc3ccc(=O)oc23)O[C@@H]1C(C)(C)OC(=O)/C(C)=C\C (stereo partly drawn) [component A, archangelicin]	inhibited the NFAT signal; also recorded: strong NFAT signal inhibitory activity	significant hair shaft elongation
C/C=C(/C)C(=O)OC1c2c(ccc3ccc(=O)oc23)OC1C(C)(C)OC(=O)CC(C)C (stereo not drawn) [component B, 3′-angeloyloxy-4′-isovaleryloxy-2′,3′-dihydrooroselol]	inhibited the NFAT signal; also recorded: strong NFAT signal inhibitory activity	significant hair shaft elongation
C/C=C(/C)C(=O)OC1c2c(ccc3ccc(=O)oc23)O[C@@H]1C(C)(C)OC(=O)C=C(C)C (stereo partly drawn) [component C, 3′-angeloyloxy-4′-senecioyloxy-2′,3′-dihydrooroselol]	inhibited the NFAT signal; also recorded: strong NFAT signal inhibitory activity	–
C/C=C(/C)C(=O)OC(C)(C)[C@H]1Oc2ccc3ccc(=O)oc3c2[C@H]1O [deacylation product of the component A, 3′-hydroxy-4′-angeloyloxy-2′,3′-dihydrooroselol]	inhibited the NFAT signal	–
